Values joined by “and” are separate entries in the source; they are usually repeats but may differ in a detail not shown here. Equal entries are not always repeated.
Legend:
Type in all cases: physicochemical
[1] = BET surface area of danazol dry powders
Method: (§1) Two percent (2%) w/v danazol solution in dichloromethane was sprayed at a flow rate of 1 ml/min into 100 ml aqueous solution containing 1% w/v excipient or a excipient mixture at 1:1 w/w ratio, if two surfactants were used, to stabilize the drug particles. The temperatures of both heating jacket and water bath were 80° C. and the pressure drop was 3500-4000 psi. After 25 minutes spray, a suspension with drug to excipient ratio of 0.5 was recovered and the particle size of the danazol particles was measured with Malvern Mastersizer-S. The suspensions were centrifuged (BECKMAN, Model TJ-6, USA) at 3000 rpm for 30 mins. The supernatants were poured out and the precipitates were placed into a vacuum oven and dried at 40° C., and −30 in Hg for 3-4 hrs. The crystallinity of the dry powders was examined by x-ray diffraction (PW1720, PHILIPS). The surface area of the dry powders was measured with a high-speed surface area BET analyzer (NOVA 2000, Quantachrome Instruments, USA).

[2] = Contact angle of water on compressed dry powder tablet; conditions: distilled water drop on compressed tablet
Method: […] was filled into a 0.7 cm diameter flat faced die and compressed with a Carver Laboratory Press (Model M, Fred S. Carver Inc, WIS, USA) at 1500 kgf into a tablet. A drop of […] distilled water was placed on the surface of the tablet and contact angle was measured from the tangential angle of the water drop with help of a camera (Panasonic WV-1410, Philippines).

[3] = Particle size distribution by static light scattering (Malvern Mastersizer-S) and redispersibility; conditions: after centrifugation and vacuum drying
Text: The organic danazol solution was fed by an HPLC pump through a 3 m long 1/16 in. o.d.×0.030 in. i.d. stainless steel coiled tube contained within a 1½″ OD×24″ long plastic water jacket (Alltech). Water was circulated through the jacket with a JULABO MP temperature controller. The organic solution was atomized through an unheated insulated adjustable restrictor (5 mm dia.×136 mm long, ISCO, USA) into hot water. Atomization was achieved by adjusting the nozzle valve manually to maintain a pressure drop to about 3500 psi. The aqueous stabilizing solution was contained in a 250 ml plastic submerged in a temperature-controlled water bath. The nozzle was submerged approximately 10 cm under the surface of the aqueous solution. […] After spraying for a required time to produce the desired drug/excipient ratio, the suspension was recovered and analyzed within 30 mins to determine the particle size by light scattering with a Malvern Mastersizer-S (Malvern Instruments Ltd., U. K.).
Two percent (2%) w/v danazol solution in dichloromethane was sprayed at a flow rate of 1 ml/min into 100 ml aqueous solution containing 1% w/v excipient or a excipient mixture at 1:1 w/w ratio, if two surfactants were used, to stabilize the drug particles. […] The surface area of the dry powders was measured with a high-speed surface area BET analyzer (NOVA 2000, Quantachrome Instruments, USA). […]

[4] = X-ray diffraction of danazol dry powders
Method: as §1
X-ray diffraction was used to analyze the crystallinity of the dry powders. […] The a-peak heights of danazol in different excipient systems at 2θ=15° are listed in Table N. The reduction in crystallinity was less than 20% after correction for the presence of 10% w/w excipient. It was assumed that the danazol peak height was linear in concentration for a fixed weight. […]

Compound: C#C[C@]1(O)CC[C@H]2[C@@H]3CCC4=Cc5oncc5C[C@]4(C)[C@H]3CC[C@@]21C [Bulk danazol, danazol]
- Surface Area of the dry powder [1]: 0.52 m^2/g
- Contact angle of dry powder after centrifugation and drying [2]: 61.5 ° and 61.0 °
- D (v, 0.5) redispersed dry powders ([3]; cell marked (30s)): 21.07 (30s) μm
- D (v, 0.5) redispersed dry powders w/o ultrasonic ([3]; redispersed in distilled water): 29.63 μm
- Peak height of danazol x-ray diffraction at 2θ = 15° [4]: 3182 counts
